Results on 22 compounds are retold here after patent US11236087B2, “Highly active pyrazolo-piperidine substituted indole-2-carboxamides active against the hepatitis B virus (HBV)” (AiCuris GmbH & Co. KG, priority 2017, dated 2022).

The nature of data set [1]: Cell viability assay (AlamarBlue) in HepAD38 cells. The settings on record: human. Background: Alamar Blue is a resazurin reagent that responds to reducing activity.
In another data set the test system is HBV. Put plainly: Determination of HBV DNA from the supernatants of HepAD38 cells (anti-HBV activity). It is filed as cell-based, hepatitis B virus. The conditions noted are these: Hepatitis B virus, 144 h; HBV DNA in HepAD38 supernatant, day 6, qPCR; read-out: Cell Activity (EC50). How it is done:
Determination of HBV DNA from the Supernatants of HepAD38 Cells
The anti-HBV activity was analysed in the stable transfected cell line HepAD38, which has been described to secrete high levels of HBV virion particles (Ladner et al., 1997). In brief, HepAD38 cells were cultured at 37° C. at 5% CO2 and 95% humidity in 200 μl maintenance medium, which was Dulbecco's modified Eagle's medium/Nutrient Mixture F-12 (Gibco, Karlsruhe), 10% fetal bovine serum (PAN Biotech Aidenbach) supplemented with 50 μg/ml penicillin/streptomycin (Gibco, Karlsruhe), 2 mM L-glutamine (PAN Biotech, Aidenbach), 400 μg/ml G418 (AppliChem, Darmstadt) and 0.3 μg/ml tetracycline. Cells were subcultured once a week in a 1:5 ratio, but were usually not passaged more than ten times. For the assay 60,000 cells were seeded in maintenance medium without any tetracycline into each well of a 96-well plate and treated with serial half-log dilutions of test compound. To minimize edge effects the outer 36 wells of the plate were not used but were filled with assay medium. On each assay plate six wells for the virus control (untreated HepAD38 cells) and six wells for the cell control (HepAD38 cells treated with 0.3 μg/ml tetracycline) were allocated, respectively. In addition, one plate set with reference inhibitors like BAY 41-4109, entecavir, and lamivudine instead of screening compounds were prepared in each experiment. In general, experiments were performed thrice in triplicates. At day 6 HBV DNA from 100 μl filtrated cell culture supernatant (AcroPrep Advance 96 Filter Plate, […] Supor membran, PALL GmbH, Dreieich) was automatically purified on the MagNa Pure LC instrument using the MagNA Pure 96 DNA and Viral NA Small Volume Kit (Roche Diagnostics, Mannheim) according to the instructions of the manufacturer. EC50 values were calculated from relative copy numbers of HBV DNA In brief, 5 μl of the 100 μl eluate containing HBV DNA were subjected to PCR LC480 Probes Master Kit (Roche) together with 1 μM antisense primer […], 0.5 μM sense primer […], 0.3 μM hybprobes […]-FL and LC640-[…]-PH (TIBMoBiol, Berlin) to a final volume of 12.5 μl. The PCR was performed on the Light Cycler 480 real time system (Roche Diagnostics, Mannheim) using the following protocol: Pre-incubation for 1 min at 95° C., amplification: 40 cycles×(10 sec at 95° C., 50 sec at 60° C., 1 sec at 70° C.), cooling for 10 sec at 40° C. Viral load was quantitated against known standards using HBV plasmid DNA of pCH-9/3091 (Nassal et al., 1990, Cell 63: 1357-1363) and the LightCycler 480 SW 1.5 software (Roche Diagnostics, Mannheim) and EC50 values were calculated using non-linear regression with GraphPad Prism 6 (GraphPad Software Inc., La Jolla, USA).
(In qPCR the cycle at which signal appears reflects the starting amount.)

SMILES strings stand for the structures.

For orientation: CC50 means the concentration giving 50% cytotoxicity. High values mean lower toxicity to the cells, low ones greater toxicity to the cells. The EC50 is the concentration that produces a half-maximal response. Regarding `CN(C(=O)c1n[nH]c2c1CN(C(=O)c1cc3c(F)c(F)ccc3[nH]1)CC2)C1(CO)CC1` [Example 240, 5-(4,5-difluoro-1H-indole-2-carbonyl)-N-[1-(hydroxymethyl)cyclopropyl]-N-methyl-1H,4H,5H,6H,7H-pyrazolo[4,3-c]pyridine-3-carboxamide], the CC50 at 6 days in data set [1] was over 10 µM. The EC50 in the data set with HBV is under 1 µM.

`CO/N=C(\c1n[nH]c2c1CN(C(=O)c1cc3ccccc3[nH]1)CC2)C1CC1` [Example 289, (Z)-{cyclopropyl[5-(1H-indole-2-carbonyl)-1H,4H,5H,6H,7H-pyrazolo[4,3-c]pyridin-3-yl]methylidene}(methoxy)amine] gave a CC50 at 6 days in data set [1] of over 10 µM. Besides, the EC50 in the data set with HBV is 1 to 25 µM.

`O=C(c1cc2ccccc2[nH]1)N1CCc2[nH]nc(C(=O)N3CCC4(CCO4)C3)c2C1` (centres unmarked) [Example 182, 2-(3-{1-oxa-6-azaspiro[3.4]octane-6-carbonyl}-1H,4H,5H,6H,7H-pyrazolo[4,3-c]pyridine-5-carbonyl)-1H-indole] showed a CC50 at 6 days in data set [1] of over 10 µM. Moreover, the EC50 in the data set with HBV was 1 to 25 µM.

`CCc1cccc2[nH]c(C(=O)N3CCc4[nH]nc(C(=O)N5CCC(F)(F)C5)c4C3)cc12` [Example 228, 2-[3-(3,3-difluoropyrrolidine-1-carbonyl)-1H,4H,5H,6H,7H-pyrazolo[4,3-c]pyridine-5-carbonyl]-4-ethyl-1H-indole] came in with a half-maximal cytotoxic concentration (CC50) at 6 days in data set [1] of over 10 µM. In the data set with HBV, the EC50 is under 1 µM.

In data set [1], `O=C(NC1CCCCC1)c1n[nH]c2c1CN(C(=O)c1cc3ccccc3[nH]1)CC2` [Example 87, N-cyclohexyl-5-(1H-indole-2-carbonyl)-1H,4H,5H,6H,7H-pyrazolo[4,3-c]pyridine-3-carboxamide] registered a CC50 at 6 days of over 100 µM. Moreover, the EC50 with HBV lay within 1 to 25 µM.

Regarding `CO/N=C(/c1n[nH]c2c1CN(C(=O)c1cc3ccccc3[nH]1)CC2)C1CC1` [Example 288, (E)-{cyclopropyl[5-(1H-indole-2-carbonyl)-1H,4H,5H,6H,7H-pyrazolo[4,3-c]pyridin-3-yl]methylidene}(methoxy)amine], the cytotoxic concentration (CC50) at 6 days in data set [1] is over 10 µM. Also, the EC50 in the data set on HBV lay in the range of 1 to 25 µM.

Compound `COCCN(C)S(=O)(=O)c1n[nH]c2c1CN(C(=O)c1cc3ccccc3[nH]1)CC2` [Example 212, 5-(1H-indole-2-carbonyl)-N-(2-methoxyethyl)-N-methyl-1H,4H,5H,6H,7H-pyrazolo[4,3-c]pyridine-3-sulfonamide] gave a half-maximal cytotoxic concentration (CC50) at 6 days in data set [1] of over 10 µM. Also, in the data set with HBV, the EC50 lay in the range of 1 to 25 µM.

Regarding `CCc1cc(F)cc2[nH]c(C(=O)N3CCc4[nH]nc(C(=O)N5CCCC56CC6)c4C3)cc12` [Example 214, 2-(3-{4-azaspiro[2.4]heptane-4-carbonyl}-1H,4H,5H,6H,7H-pyrazolo[4,3-c]pyridine-5-carbonyl)-4-ethyl-6-fluoro-1H-indole], the CC50 at 6 days in data set [1] is over 10 µM. In the data set with HBV, the EC50 is under 1 µM.

On to `O=C(c1cc2ccccc2[nH]1)N1CCc2[nH]nc(C(=O)N(C3CCOCC3)C3CC3)c2C1` [Example 293, N-cyclopropyl-5-(1H-indole-2-carbonyl)-N-(oxan-4-yl)-1H,4H,5H,6H,7H-pyrazolo[4,3-c]pyridine-3-carboxamide], for which the CC50 at 6 days in data set [1] was over 10 µM. In addition, the EC50 in the data set on HBV is under 100 µM.

In data set [1], `O=C(c1cc2c(Cl)cc(F)cc2[nH]1)N1CCc2[nH]nc(C34CC(C3)C4)c2C1` [Example 335, 2-(3-{bicyclo[1.1.1]pentan-1-yl}-1H,4H,5H,6H,7H-pyrazolo[4,3-c]pyridine-5-carbonyl)-4-chloro-6-fluoro-1H-indole] gave a CC50 at 6 days of over 10 µM. In addition, in the data set on HBV, the concentration giving a half-maximal response (EC50) was under 1 µM.

In the case of `O=C(c1cc2ccccc2[nH]1)N1CCc2n[nH]c(C(=O)N3CCN(Cc4ccccc4)C4(CC4)C3)c2C1` [Example 257, 2-(3-{4-benzyl-4,7-diazaspiro[2.5]octane-7-carbonyl}-2H,4H,5H,6H,7H-pyrazolo[4,3-c]pyridine-5-carbonyl)-1H-indole], the CC50 at 6 days in data set [1] was over 10 µM. Besides, the EC50 with HBV was in the range of 1 to 25 µM.

Take `O=C(c1cc2c(Cl)cccc2[nH]1)N1CCc2[nH]nc(C(=O)N3CCC(F)(F)C3)c2C1` [Example 230, 4-chloro-2-[3-(3,3-difluoropyrrolidine-1-carbonyl)-1H,4H,5H,6H,7H-pyrazolo[4,3-c]pyridine-5-carbonyl]-1H-indole]: the CC50 at 6 days in data set [1] was over 10 µM. The EC50 with HBV was under 1 µM.

`O=C(c1cc2ccccc2[nH]1)N1CCc2[nH]nc(C(=O)N3CC(F)(F)C(F)(F)C3)c2C1` [Example 223, 2-[3-(3,3,4,4-tetrafluoropyrrolidine-1-carbonyl)-1H,4H,5H,6H,7H-pyrazolo[4,3-c]pyridine-5-carbonyl]-1H-indole] returned a CC50 at 6 days in data set [1] of over 10 µM. Further, the EC50 in the data set with HBV lay within 1 to 25 µM.

Compound `O=C(c1cc2ccccc2[nH]1)N1CCc2[nH]nc(C(=O)N3CC[C@H](F)C3)c2C1` [Example 224, 2-{3-[(3S)-3-fluoropyrrolidine-1-carbonyl]-1H,4H,5H,6H,7H-pyrazolo[4,3-c]pyridine-5-carbonyl}-1H-indole] returned a CC50 at 6 days in data set [1] of over 10 µM. In addition, the EC50 in the data set with HBV was under 1 µM.

`CN(C(=O)c1n[nH]c2c1CN(C(=O)c1cc3c(Cl)cc(F)cc3[nH]1)CC2)C1(CO)CC1` [Example 241, 5-(4-chloro-6-fluoro-1H-indole-2-carbonyl)-N-[1-(hydroxymethyl)cyclopropyl]-N-methyl-1H,4H,5H,6H,7H-pyrazolo[4,3-c]pyridine-3-carboxamide]: the CC50 at 6 days in data set [1] was over 10 µM. Further, the EC50 in the data set on HBV was under 1 µM.

Consider `O=C(c1cc2ccccc2[nH]1)N1CCc2[nH]nc(C(=O)N3CCC(F)(F)C3)c2C1` [Example 186, 2-[3-(3,3-difluoropyrrolidine-1-carbonyl)-1H,4H,5H,6H,7H-pyrazolo[4,3-c]pyridine-5-carbonyl]-1H-indole], for which the CC50 at 6 days in data set [1] is over 10 µM. Moreover, the EC50 in the data set with HBV was under 1 µM.

In data set [1], `O=C(c1cc2cc(F)c(F)cc2[nH]1)N1CCc2n[nH]c(-c3cscn3)c2C1` [Example 14, 5,6-difluoro-2-[3-(1,3-thiazol-4-yl)-2H,4H,5H,6H,7H-pyrazolo[4,3-c]pyridine-5-carbonyl]-1H-indole] gave a CC50 at 6 days of over 10 µM. Besides, the EC50 with HBV is under 1 µM.

`CN(C(=O)c1[nH]nc2c1CN(C(=O)c1cc3cccc(F)c3[nH]1)CC2)C1CC1` [Example 319, N-cyclopropyl-5-(7-fluoro-1H-indole-2-carbonyl)-N-methyl-2H,4H,5H,6H,7H-pyrazolo[4,3-c]pyridine-3-carboxamide] gave a CC50 at 6 days in data set [1] of over 10 µM. Besides, the EC50 with HBV is under 1 µM.

In data set [1], `Cn1ncc2c1CN(C(=O)c1n[nH]c3c1CN(C(=O)c1cc4ccccc4[nH]1)CC3)C2` [Example 168, 2-(3-{1-methyl-1H,4H,5H,6H-pyrrolo[3,4-c]pyrazole-5-carbonyl}-1H,4H,5H,6H,7H-pyrazolo[4,3-c]pyridine-5-carbonyl)-1H-indole] returned a CC50 at 6 days of over 10 µM. The EC50 with HBV was in the range of 1 to 25 µM.

In data set [1], `CN(C(=O)c1n[nH]c2c1CN(C(=O)c1cc3cc(F)c(Cl)cc3[nH]1)CC2)C1(CO)CC1` [Example 242, 5-(6-chloro-5-fluoro-1H-indole-2-carbonyl)-N-[1-(hydroxymethyl)cyclopropyl]-N-methyl-1H,4H,5H,6H,7H-pyrazolo[4,3-c]pyridine-3-carboxamide] yielded a CC50 at 6 days of over 10 µM. Moreover, in the data set with HBV, the concentration for a half-maximal effect (EC50) is under 1 µM.

Turning to `CCc1cc(F)cc2[nH]c(C(=O)N3CCc4[nH]nc(C(=O)N5CCC(F)(F)C5)c4C3)cc12` [Example 227, 2-[3-(3,3-difluoropyrrolidine-1-carbonyl)-1H,4H,5H,6H,7H-pyrazolo[4,3-c]pyridine-5-carbonyl]-4-ethyl-6-fluoro-1H-indole], the CC50 at 6 days in data set [1] was over 10 µM. The EC50 in the data set on HBV was under 1 µM.

`O=C(c1cc2c(C(F)F)cc(F)cc2[nH]1)N1CCc2n[nH]c(C3CCC3)c2C1` [Example 400, 2-{3-cyclobutyl-2H,4H,5H,6H,7H-pyrazolo[4,3-c]pyridine-5-carbonyl}-4-(difluoromethyl)-6-fluoro-1H-indole] yielded a CC50 at 6 days in data set [1] of over 10 µM. Further, the EC50 in the data set on HBV is under 1 µM.
